The values that follow come from patent US20250171438A1 (Agios Pharmaceuticals, Inc., priority 2022, published 2025).

The test deals with T1, human PAH with the R408W mutation (Homo sapiens, UniProt P00439, R408W).
T1 construct: expressed in transfected cells
T1 sequence (P00439 1-452 R408W): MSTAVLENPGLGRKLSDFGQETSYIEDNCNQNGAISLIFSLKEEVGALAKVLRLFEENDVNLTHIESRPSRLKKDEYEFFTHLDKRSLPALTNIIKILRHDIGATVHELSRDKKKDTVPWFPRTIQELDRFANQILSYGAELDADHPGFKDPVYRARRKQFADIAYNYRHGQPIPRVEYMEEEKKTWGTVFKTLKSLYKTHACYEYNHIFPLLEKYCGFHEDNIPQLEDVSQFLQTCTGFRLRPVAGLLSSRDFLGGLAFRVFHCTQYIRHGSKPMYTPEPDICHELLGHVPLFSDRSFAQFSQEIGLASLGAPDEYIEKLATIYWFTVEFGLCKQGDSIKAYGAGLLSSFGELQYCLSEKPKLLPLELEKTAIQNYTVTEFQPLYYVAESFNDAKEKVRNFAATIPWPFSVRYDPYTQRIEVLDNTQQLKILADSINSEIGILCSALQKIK
The experiment in a line: Cell Based Phenylalanine Flux Assay. Conditions: A375 cells expressing human R408W PAH, 13C-Tyrosine by LC-MS, average where tested multiple times. On the set-up: scale not given here.

Setting [1] is: 24 hrs compound incubation, read-out: AC50.
Setting [2] is: 24 hrs with compound, read-out: AC50.

Like-named read-outs stand apart in the source and are kept apart here.

For the compound `O=C(c1oc(C2(O)CCC2)nc1C(F)(F)F)N1CCc2[nH]cnc2[C@@H]1c1nc2c(F)cccc2s1` [Example 1638, (R)-(4-(4-fluorobenzo[d]thiazol-2-yl)-6,7-dihydro-1H-imidazo[4,5-c]pyridin-5(4H)-yl)(2-(1-hydroxycyclobutyl)-4-(trifluoromethyl)oxazol-5-yl)methanone], under setting [1], the AC50 was < 500 nM. Take `Clc1ccc2nc(C3c4nc[nH]c4CCN3Cc3nccs3)[nH]c2c1` (stereo not shown): the AC50 under setting [2] was > 5000 nM. Take `Cn1ccc(C(=O)N2CCc3[nH]cnc3C2c2nc3c(F)cccc3s2)n1` (stereo not shown): the AC50 under setting [2] was > 5000 nM. Take `O=C(c1cnn2ccccc12)N1CCc2[nH]cnc2[C@H]1c1nc2ccccc2[nH]1` [Example 923, (S)-(4-(1H-benzo[d]imidazol-2-yl)-6,7-dihydro-1H-imidazo[4,5-c]pyridin-5(4H)-yl)(pyrazolo[1,5-a]pyridin-3-yl)methanone]: the AC50 under setting [1] is 500 to 1000 nM. The same measure, in the same setting: next, `N#Cc1ccn2ncc(C(=O)N3CCc4[nH]cnc4[C@@H]3c3nc4ccc(F)cc4s3)c2c1` [Example 1156, (R)-3-(4-(6-fluorobenzo[d]thiazol-2-yl)-4,5,6,7-tetrahydro-1H-imidazo[4,5-c]pyridine-5-carbonyl)pyrazolo[1,5-a]pyridine-5-carbonitrile]: > 5000 nM; `O=C(CCc1nccs1)N1CCc2[nH]cnc2[C@@H]1c1nc2c(F)cccc2s1` [Example 1078, (R)-1-(4-(4-fluorobenzo[d]thiazol-2-yl)-6,7-dihydro-1H-imidazo[4,5-c]pyridin-5(4H)-yl)-3-(thiazol-2-yl)propan-1-one]: > 5000 nM; `COCCc1ccc2c(C(=O)N3CCc4[nH]cnc4[C@H]3c3nc4ccccc4s3)c(C#N)nn2c1` [Example 1867, (S)-3-(4-(benzo[d]thiazol-2-yl)-4,5,6,7-tetrahydro-1H-imidazo[4,5-c]pyridine-5-carbonyl)-6-(2-methoxyethyl)pyrazolo[1,5-a]pyridine-2-carbonitrile]: < 500 nM. Take `CC[C@@H](O)c1nc(C(F)F)c(C(=O)N2CCc3[nH]cnc3[C@H]2c2nc3c(F)cccc3s2)o1` [Example 2067]: under setting [1], the AC50 was < 500 nM.

Take `O=C(c1cnn2ccccc12)N1CCc2[nH]cnc2[C@H]1c1nc2cccc(Cl)c2[nH]1` [Example 986, (S)-(4-(7-chloro-1H-benzo[d]imidazol-2-yl)-6,7-dihydro-1H-imidazo[4,5-c]pyridin-5(4H)-yl)(pyrazolo[1,5-a]pyridin-3-yl)methanone]: the AC50 under setting [1] fell in the range of 500 to 1000 nM. Take `O=C(c1nnc(C2CC2)o1)N1CCc2[nH]cnc2[C@H]1c1nc2ccccc2s1` [Example 1363]: the AC50 under setting [1] is < 500 nM.

With `O=C(c1nnc(-c2ccccn2)o1)N1CCc2[nH]cnc2[C@@H]1c1nc2c(F)cccc2s1` [Example 1601, (R)-(4-(4-fluorobenzo[d]thiazol-2-yl)-6,7-dihydro-1H-imidazo[4,5-c]pyridin-5(4H)-yl)(5-(pyridin-2-yl)-1,3,4-oxadiazol-2-yl)methanone], the AC50 under setting [1] is 500 to 1000 nM. Take `Cn1ncc(C(=O)N2CCc3[nH]cnc3C2c2nc3c(C(F)(F)F)cccc3s2)c1Cl` (stereo not shown): under setting [2], the AC50 fell in the range of 1000 to 5000 nM. As to `c1ccc2[nH]c([C@@H]3c4nc[nH]c4CCN3c3nc4ccccc4o3)nc2c1` [Example 988, (S)-2-(4-(1H-benzo[d]imidazol-2-yl)-6,7-dihydro-1H-imidazo[4,5-c]pyridin-5(4H)-yl)benzo[d]oxazole], under setting [1], the AC50 was < 500 nM. Regarding `Cc1nc(N2CCN(C)CC2)oc1C(=O)N1CCc2[nH]cnc2C1c1nc2c(F)cccc2s1` (stereo not shown), the AC50 under setting [2] lay in the range of 1000 to 5000 nM. As for `CN(C)CCCc1nnc(C(=O)N2CCc3[nH]cnc3[C@@H]2c2nc3ccccc3s2)o1` (single isomer, unassigned), the AC50 under setting [2] was > 5000 nM.

`O=C(c1n[nH]c2ccccc12)N1CCc2[nH]cnc2C1c1nc2cc(F)ccc2s1` (stereo not shown): under setting [2], the AC50 was > 5000 nM. Take `CC(C)(C#N)c1nc(C(F)F)c(C(=O)N2CCc3[nH]cnc3[C@@H]2c2nc3c(F)cccc3s2)o1` [Example 2028, (R)-2-(4-(difluoromethyl)-5-(4-(4-fluorobenzo[d]thiazol-2-yl)-4,5,6,7-tetrahydro-1H-imidazo[4,5-c]pyridine-5-carbonyl)oxazol-2-yl)-2-methylpropanenitrile]: the AC50 under setting [1] is < 500 nM. Take `Cn1cc(-c2ncc(C(=O)N3CCc4[nH]cnc4[C@@H]3c3nc4ccccc4s3)s2)cn1` [Example 1230, (R)-(4-(benzo[d]thiazol-2-yl)-6,7-dihydro-1H-imidazo[4,5-c]pyridin-5(4H)-yl)(2-(1-methyl-1H-pyrazol-4-yl)thiazol-5-yl)methanone]: the AC50 under setting [1] is 1000 to 5000 nM. As for `CC(C)(O)c1ncc(C(=O)N2CCc3[nH]cnc3[C@H]2c2nc3ccccc3[nH]2)o1` [(S)-(4-(1H-benzo[d]imidazol-2-yl)-6,7-dihydro-1H-imidazo[4,5-c]pyridin-5(4H)-yl)(2-(2-hydroxypropan-2-yl)oxazol-5-yl)methanone], the AC50 under setting [2] is > 5000 nM. In the case of `O=C(c1nccs1)N1CCc2[nH]cnc2[C@H]1c1nc2cccc(F)c2s1` [Example 1101, (S)-(4-(7-fluorobenzo[d]thiazol-2-yl)-6,7-dihydro-1H-imidazo[4,5-c]pyridin-5(4H)-yl)(thiazol-2-yl)methanone], under setting [1], the AC50 fell in the range of 500 to 1000 nM. Still for that read-out and setting: with `CC(C)(C)n1ncc(C(=O)N2CCc3[nH]cnc3[C@@H]2c2nc3c(F)cccc3s2)c1Cl` [Example 1932, (R)-(1-(tert-butyl)-5-chloro-1H-pyrazol-4-yl)(4-(4-fluorobenzo[d]thiazol-2-yl)-6,7-dihydro-1H-imidazo[4,5-c]pyridin-5(4H)-yl)methanone] the figure was 1000 to 5000 nM. Take `O=C(C1CC1)N1CCc2[nH]cnc2C1c1nc2cc(F)ccc2s1` (stereo not shown): the AC50 under setting [2] is 1000 to 5000 nM. `CC(C)(O)c1nsc(C(=O)N2CCc3[nH]cnc3C2c2nc3c(F)cccc3s2)n1` (stereo not shown): the AC50 under setting [2] is > 5000 nM.

As for `O=C(c1cnn2cc(CN3CCC(F)(F)C3)ccc12)N1CCc2[nH]cnc2[C@H]1c1nc2ccccc2s1` [Example 1313], under setting [1], the concentration at half-maximal activity (AC50) lay within 500 to 1000 nM. With `Cc1c(C(=O)N2CCc3[nH]cnc3[C@@H]2c2nc3c(F)cccc3s2)cnn1CC(F)(F)F` [Example 1920, (R)-(4-(4-fluorobenzo[d]thiazol-2-yl)-6,7-dihydro-1H-imidazo[4,5-c]pyridin-5(4H)-yl)(5-methyl-1-(2,2,2-trifluoroethyl)-1H-pyrazol-4-yl)methanone], the AC50 under setting [1] is > 5000 nM. `CC(C)(O)c1noc(C(=O)N2CCc3[nH]cnc3C2c2nc3c(F)cccc3s2)n1` (stereo not shown): the AC50 under setting [2] is 1000 to 5000 nM. On to `Cc1nnc(CCC(=O)N2CCc3[nH]cnc3C2c2nc3ccc(Cl)cc3[nH]2)s1` (stereo not shown), for which the AC50 under setting [2] was > 5000 nM.

With `CC(C)(O)/C=C/c1nc(C(F)(F)F)c(C(=O)N2CCc3[nH]cnc3[C@H]2c2nc3ccccc3s2)o1` [Example 1569], the AC50 under setting [1] is < 500 nM.

For the compound `O=C(c1cnn(CC2CC2)c1Cl)N1CCc2[nH]cnc2[C@H]1c1nc2c(F)cccc2s1` [Example 1971, (S)-(5-chloro-1-(cyclopropylmethyl)-1H-pyrazol-4-yl)(4-(4-fluorobenzo[d]thiazol-2-yl)-6,7-dihydro-1H-imidazo[4,5-c]pyridin-5(4H)-yl)methanone], under setting [1], the AC50 lay in the range of 500 to 1000 nM. Still for that read-out and setting: next, `Cc1nc(C(C)C)oc1C(=O)N1CCc2[nH]cnc2[C@H]1c1nc2ccccc2s1` [Example 1397]: < 500 nM; `O=C(c1cnn2ccccc12)N1CCc2[nH]cnc2[C@@H]1c1nc2ccc(F)cc2s1` [Example 1100, (R)-(4-(6-fluorobenzo[d]thiazol-2-yl)-6,7-dihydro-1H-imidazo[4,5-c]pyridin-5(4H)-yl)(pyrazolo[1,5-a]pyridin-3-yl)methanone]: > 5000 nM. As to `O=C(CCc1nccs1)N1CCc2[nH]cnc2C1c1nc2ccc(Br)cc2s1` (stereo not shown), the AC50 under setting [2] was 1000 to 5000 nM. As to `Cn1cc(C(F)(F)C(=O)N2CCc3[nH]cnc3[C@@H]2c2nc3ccccc3s2)cn1` [Example 1556, (R)-1-(4-(benzo[d]thiazol-2-yl)-6,7-dihydro-1H-imidazo[4,5-c]pyridin-5(4H)-yl)-2,2-difluoro-2-(1-methyl-1H-pyrazol-4-yl)ethanone], the AC50 under setting [1] was in the range of 1000 to 5000 nM.

For `Nc1cnc(N2CCc3[nH]cnc3[C@H]2c2nc3ccccc3s2)nc1` (single isomer, unassigned) [Example 1468], under setting [1], the AC50 was 500 to 1000 nM. Same read-out and setting: with `CN(C)c1nnc(C(=O)N2CCc3[nH]cnc3[C@@H]2c2nc3ccccc3s2)o1` [Example 1610, (R)-(4-(benzo[d]thiazol-2-yl)-6,7-dihydro-1H-imidazo[4,5-c]pyridin-5(4H)-yl)(5-(dimethylamino)-1,3,4-oxadiazol-2-yl)methanone] the figure was 1000 to 5000 nM. Turning to `CN(C)Cc1nc(C(F)(F)F)c(C(=O)N2CCc3[nH]cnc3C2c2nc3ccccc3s2)o1` (stereo not shown), the AC50 entry (24 hrs with compound) is given as “E, E”. In the case of `O=C(c1cnn2ccccc12)N1CCc2[nH]cnc2C1c1nc2ccc(Br)cc2s1` (stereo not shown), the AC50 under setting [2] was > 5000 nM. For `Cc1ncoc1C(=O)N1CC2(CC2)c2[nH]cnc2C1c1nc2c(F)cccc2s1` (stereo not shown), the AC50 under setting [2] is 1000 to 5000 nM.

Consider `O=C(c1ccn[nH]1)N1CCc2[nH]cnc2C1c1nc2c(F)cccc2s1` (stereo not shown), for which, under setting [2], the AC50 was > 5000 nM. On to `O=C(c1cnc(C2CC2)o1)N1CCc2[nH]cnc2[C@H]1c1nc2c(F)cccc2s1` [Example 1329], for which, under setting [1], the AC50 was < 500 nM.

The AC50 is the concentration at which the activity in the assay is half-maximal.
